In patent US20150216925A1, “AGENT FOR PREVENTING OR AM[…] ENDOTHELIAL MALFUNCTION” (KYOWA HAKKO BIO CO., LTD., priority 2012, published 2015):

Tested on: normal human umbilical vein endothelial cell (HUVEC)
Assay: NO production (nitrite in culture supernatant) in HUVEC, HPLC
Assay type: cell-based
Settings: 24-hour culture, FIG. 1
Method: A normal human umbilical vein endothelial cell (HUVEC) line available from Clonetics (SanDiego, Calif., USA) was used with EGM-2 Bullet Kit medium containing 2% FBS (Takara Bio). The cells were cultured in at 37° C., in 5% CO2 incubator, and used for experiment after 4 to 6 passages. Citrulline and reduced glutathione were obtained from Kyowa Hakko Bio.
A cell suspension (0.45 mL) with the adjusted initial cell concentration of 5×10^5 cells/mL was inoculated in a 24-well plate (IWAKI). After 40-hour culture, the media were replaced with those containing citrulline (final concentration 0.3 mM: citrulline group), reduced glutathione (final concentration 1 mM: high-dose glutathione group), and a citrulline and reduced glutathione mixture (citrulline final concentration 0.3 mM; glutathione final concentration 0.3 mM: citrulline+low-dose glutathione group). Media with the sole addition of solvent (PBS) were used as a control group. After 24-hour culture, the cell culture (100 μL) was centrifuged at 12,000 rpm for 10 minutes, and the concentration of nitrite (NO2), which is the stable NO metabolite, in culture supernatant was quantified by HPLC (ENO-20, EICOM).

Compound	effect on NO production (nitrite NO2 concentration in medium) (citrulline final concentration 0.3 mM)	effect on NO production (nitrite NO2 concentration in medium) (reduced glutathione final concentration 1 mM (high-dose))
NC(=O)NCCC[C@H](N)C(=O)O [citrulline, L-citrulline]	no effect	
N[C@@H](CCC(=O)N[C@@H](CS)C(=O)NCC(=O)O)C(=O)O [glutathione, γ-L-Glu-L-Cys-Gly]		no effect
